Data taken from US20110117009A1, “DRUG CONJUGATES WITH POLYGLYCEROLS” (FREIE UNIVERSITÄT BERLIN, priority 2008, published 2011).
Marks after values point to notes of the source that are not given here.

Assays:
AsPC1 LN = assay: Cytotoxicity, luciferase readout after 72 h; type: cell-based; conditions: Homo sapiens
Method: After 72 h cells were lysed in 100 μL of luciferase assay buffer, and an aliquot of the lysate was assayed for luciferase activity.

[1] = system: human ovarian cancer xenografts (A2780); assay: In vivo efficacy in the ovarian carcinoma A2780 xenograft model; design: species or system female NMRI: nu/nu mice; conditions: doxorubicin 2×8 mg/kg, conjugates 3×24 mg/kg doxorubicin equivalents
Method: The mice were held in individually ventilaged cages (IVC) under sterile and standardized environmental conditions (25±2° C. room temperature, 50±10% relative humidity, 12 hour light-dark-rhythm). They received autoclaved food and bedding (ssniff, Soest, Germany) and acidified (pH 4.0) drinking water ad libitum. […] Mice were randomly distributed to the experimental groups (8 mice per group). When the tumors were grown to a palpable size, treatment was initiated.
Tumor size was measured twice weekly with a caliper-like instrument in two dimensions. Individual tumor volumes (V) were calculated by the formula V=(length×[width]^2)/2 and related to the values on the first day of treatment (relative tumor volume, RTV). Statistical analysis was performed with the U-test (Mann and Whitney) with p<0.05. The body weight of mice was determined every 3 to 4 days.

[2] = Tolerability (mortality, body weight change) in the A2780 xenograft study; type: in vivo, female NMRI: nu/nu mice; conditions: i.v. weekly, doxorubicin 2×8 mg/kg, conjugates 3×24 mg/kg doxorubicin equivalents
Method: In vivo efficacy studies were carried out with compounds 1-A, 1-B, and 1-C and doxorubicin in the ovarian carcinoma A2780 xenograft model. For the in vivo testing, female NMRI: nu/nu mice (Taconic, Denmark) were used. The mice were held in individually ventilaged cages (IVC) under sterile and standardized environmental conditions (25±2° C. room temperature, 50±10% relative humidity, 12 hour light-dark-rhythm). They received autoclaved food and bedding (ssniff, Soest, Germany) and acidified (pH 4.0) drinking water ad libitum. A2780 tumor fragments were transplanted subcutaneously (s.c.) into the left flank region of anaesthetized (40 mg/kg i.p. Radenarkon, Asta Medica, Frankfurt, Germany) mice on day zero. […]
Tumor size was measured twice weekly with a caliper-like instrument in two dimensions. Individual tumor volumes (V) were calculated by the formula V=(length×[width]^2)/2 and related to the values on the first day of treatment (relative tumor volume, RTV). […] The body weight of mice was determined every 3 to 4 days.
The standard and maximum tolerated dose of doxorubicin (2×8 mg/kg) was compared to compounds 1-A, 1-B, and 1-C at 3×24 mg/kg (doxorubicin equivalents). […] J. Drug Targeting, 8: 305-318, 2000; Trail et al.: Antigen-specific activity of carcinoma-reactive BR64-doxorubicin conjugates evaluated in vitro and in human tumor xenograft models. […]

[3] = nude mice models, e.g. 2×12 mg/kg; cited from earlier work

COc1cccc2c1C(=O)c1c(O)c3c(c(O)c1C2=O)C[C@@](O)(C(=O)CO)C[C@@H]3O[C@H]1C[C@H](N)[C@H](O)[C@H](C)O1 [Doxorubicin, doxorubicin]
IC50 (AsPC1 LN): 360 nM
antitumor efficacy (in words) ([1]; A2780 xenografts): moderate antitumor efficacy
optimum T/C RTV ([1]; i.v. weekly, relative tumor volume treated versus control): 15* %
toxic death ([2]; 8 mice per group): 0
BWC (body weight change) ([2]; day in brackets): −21 (d26) %
toxicity at higher doses [3]: unacceptable toxicity and mortality
